From patent US5210193A, “Piperazine derivatives” (American Cyanamid Company, priority 1990, dated 1993)
In brackets after ≈: the same amount, converted by molar mass. Several values for one entry are separate records, joined by “and”; a condition that tells them apart may be missing. Equal values may be shown once. Read-outs that look alike come from different tables or passages of the source.

Columns and labels:
Test in all cases: in vitro antibacterial MIC, agar plate dilution
Format in all cases: cell-based
[1] = system: Staphylococcus aureus CMC 83-131; conditions: Staphylococcus aureus, CMC83131, 18 h, 35° C., read-out: MIC
Procedure, shortened: (§1)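 Read-out is visible growth inhibition on Mueller-Hinton agar dilution plates incubated 18 hours at 35° C after inoculation of ~10^4 CFU (Steers device), with MIC reported in mcg/ml.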

[2] = system: Streptococcus faecalis CMC 83-120; conditions: Enterococcus faecalis, CMC83120, 18 h, 35° C., read-out: MIC
Procedure, shortened: as §1

[3] = system: Pseudomonas aeruginosa CMC 83-20; conditions: Pseudomonas aeruginosa, CMC8320, 18 h, 35° C., read-out: MIC
Procedure, shortened: as §1

[4] = system: Pseudomonas aeruginosa VGH 84-4; conditions: 35° C.
Procedure, shortened: as §1

[5] = system: Enterobacter cloacae MOR 83-30; conditions: MOR8330, 18 hours, 35° C.
Procedure, shortened: as §1

[6] = system: Citrobacter div. K 82-24; conditions: Citrobacter, DIV.K8224, 18 h, 35° C., read-out: MIC
Procedure, shortened: as §1

[7] = system: Serratia marcescens K 84-18; conditions: Serratia marcescens, K8418, 18 h, 35° C., read-out: MIC
Procedure, shortened: as §1

[8] = system: Escherichia coli ATCC 25922; conditions: 35° C.
Procedure, shortened: as §1

[9] = system: Enterobacter cloacae VGH 84-39; conditions: Enterobacter cloacae, VGH8439, 18 h, 35° C., read-out: MIC
Procedure, shortened: as §1

[10] = system: Morganella morganii VHG 84-12; conditions: Morganella morganii, VHG8412, 18 h, Morganella morganii VHG 84-12 (VGH 84-12 for Example 131), 35° C., read-out: MIC
Procedure, shortened: as §1

[11] = system: Klebsiella oxytoca MOR 84-28; conditions: MOR8428, 18 hours, 35° C.
Procedure, shortened: as §1

[12] = system: Escherichia coli NAR 311; conditions: NAR311, 18 hours, 35° C., read-out: MIC
Procedure, shortened: as §1

[13] = system: Serratia marcescens F 0-35; conditions: Serratia marcescens, F035, 18 h, 35° C., read-out: MIC
Procedure, shortened: as §1

[14] = system: Klebsiella pneumoniae MOR 84-4; conditions: Klebsiella pneumoniae, MOR844, 18 h, 35° C., read-out: MIC
Procedure, shortened: as §1

[15] = system: Staphylococcus aureus VGH 84-46; conditions: Staphylococcus aureus, VGH8446, 18 h, 35° C., read-out: MIC
Procedure, shortened: as §1

[16] = system: Staphylococcus aureus CMC 83-128; conditions: CMC83128, 18 hours, 35° C., read-out: MIC
Procedure, shortened: as §1

[17] = system: Staphylococcus aureus CMC 83-127; conditions: Staphylococcus aureus, CMC83127, 18 h, 35° C., read-out: MIC
Procedure, shortened: as §1

[18] = system: Klebsiella pneumoniae AD; conditions: Klebsiella pneumoniae, 18 h, 35° C., read-out: MIC
Procedure, shortened: as §1

[19] = system: Staphylococcus epidermidis VGH 84-40; conditions: VGH8440, 18 hours, 35° C., read-out: MIC
Procedure, shortened: as §1

[20] = system: Acinetobacter calcoaceticus MOR 84-43; conditions: MOR8443, 18 hours, 35° C., read-out: MIC
Procedure, shortened: as §1

[21] = system: Staphylococcus epidermidis CMC 83-135; conditions: CMC83135, 18 hours, 35° C., read-out: MIC
Procedure, shortened: as §1

[22] = system: Escherichia coli CMC 84-16; conditions: Escherichia coli, CMC8416, 18 h, 35° C., read-out: MIC
Procedure, shortened: as §1

[23] = system: Staphylococcus epidermidis IO 83-58; conditions: IO8358, 18 hours, 35° C., read-out: MIC
Procedure, shortened: as §1

[24] = system: Streptococcus faecalis ATTC 29212; conditions: Enterococcus faecalis, ATTC29212, 18 hours, 35° C., read-out: MIC
Procedure, shortened: as §1

[25] = system: Morganella morganii VGH 84-11; conditions: VGH8411, 18 hours, 35° C., read-out: MIC
Procedure, shortened: as §1

[26] = system: Enterobacter aerogenes VGH 84-36; conditions: Klebsiella aerogenes, VGH8436, 18 hours, 35° C., read-out: MIC
Procedure, shortened: as §1

[27] = system: Escherichia coli PRNT 311; conditions: PRNT311, 18 hours, 35° C., read-out: MIC
Procedure, shortened: as §1

[28] = system: Staphylococcus Spp saprophiticus VGH 84-50; conditions: 18 hours, 35° C., read-out: MIC
Procedure, shortened: as §1

[29] = system: Enterobacter cloacae VGH 84-37; conditions: Enterobacter cloacae, VGH8437, 18 h, 35° C., read-out: MIC
Procedure, shortened: as §1

[30] = Pseudomonas aeruginosa, VGH844, 18 h, read-out: MIC
[31] = Escherichia coli, ATCC25922, 18 h, read-out: MIC

MIC [1] | MIC [2] | MIC [3] | MIC [4, 30] | MIC [6] | MIC [7] | MIC [8, 31] | MIC [9] | MIC [10] | MIC ([8]; 18 hours) | Structure (SMILES) | further results
2 µg/mL (≈ 4.84 µM) | > 16 µg/mL | > 16 µg/mL | > 128 µg/mL | > 16 µg/mL | 32 µg/mL (≈ 77.4 µM) | 8 µg/mL (≈ 19.3 µM) | > 16 µg/mL | > 16 µg/mL |  | CCn1cc(C(=O)O)c(=O)c2cc(F)c(N3CCN(C)C(c4ccn(C)n4)C3)cc21 (stereo not drawn) [Example 109, 1-Ethyl-6-fluoro-1,4-dihydro-7-[4-methyl-3-(1-methyl-1H-pyrazol-3-yl) -1-piperazinyl]-4-oxo-3-quinolinecarboxylic acid] | 
 | 4 µg/mL (≈ 10.4 µM) | 8 µg/mL (≈ 20.8 µM) | 4 µg/mL (≈ 10.4 µM) | 0.25 µg/mL (≈ 0.649 µM) | 0.5 µg/mL (≈ 1.3 µM) | 0.25 µg/mL (≈ 0.649 µM) | 0.5 µg/mL (≈ 1.3 µM) | 1 µg/mL (≈ 2.59 µM) | 0.5 µg/mL (≈ 1.3 µM) | CCn1cc(C(=O)O)c(=O)c2cc(F)c(N3CCNC(c4ccoc4)C3)cc21 (stereo not drawn) [Example 94, 1-Ethyl-6-fluoro-1,4-dihydro-4-oxo-7-[3-(3-furanyl)-1-piperazinyl]-3-quinolinecarboxylic acid] | 
2 µg/mL (≈ 5.05 µM) | > 16 µg/mL | > 16 µg/mL | 64 µg/mL (≈ 161 µM) | 4 µg/mL (≈ 10.1 µM) | 8 µg/mL (≈ 20.2 µM) | 1 µg/mL (≈ 2.52 µM) | 4 µg/mL (≈ 10.1 µM) | 8 µg/mL (≈ 20.2 µM) |  | CCn1cc(C(=O)O)c(=O)c2cc(F)c(N3CCNC(c4ccncc4)C3)cc21 (stereo not drawn) [Example 123] | 
0.25 µg/mL (≈ 0.629 µM) | 1 µg/mL (≈ 2.52 µM) | 8 µg/mL (≈ 20.1 µM) |  | 0.12 µg/mL (≈ 0.302 µM) | 0.25 µg/mL (≈ 0.629 µM) |  | 0.12 µg/mL (≈ 0.302 µM) | 0.5 µg/mL (≈ 1.26 µM) | 0.03 µg/mL and 0.06 µg/mL | O=C(O)c1cn(C2CC2)c2cc(N3CCNC(c4ccco4)C3)c(F)cc2c1=O (stereo not drawn) [Example 62, 1-Cyclopropyl-6-fluoro-7-[3-(2-furanvl)-1-piperazinyl]-1,4-dihydro-4-oxo-3-quinolinecarboxylic acid] | MIC [11]: 0.06 µg/mL (≈ 0.151 µM); MIC [12]: 0.5 µg/mL (≈ 1.26 µM); MIC [13]: 0.06 µg/mL (≈ 0.151 µM); MIC ([4]; 18 hours): 1 µg/mL (≈ 2.52 µM); MIC [14]: 0.12 µg/mL (≈ 0.302 µM); MIC [15]: 0.015 µg/mL (≈ 0.0377 µM); MIC [16]: 0.03 µg/mL (≈ 0.0755 µM); MIC [17]: 0.008 µg/mL (≈ 0.0201 µM); MIC [18]: 0.12 µg/mL (≈ 0.302 µM); MIC [19]: 0.03 µg/mL (≈ 0.0755 µM); MIC [20]: 0.06 µg/mL (≈ 0.151 µM); MIC [21]: 0.03 µg/mL (≈ 0.0755 µM); MIC [22]: 0.03 µg/mL (≈ 0.0755 µM); MIC [23]: 0.015 µg/mL (≈ 0.0377 µM); MIC [24]: 0.25 µg/mL (≈ 0.629 µM); MIC [25]: 0.06 µg/mL (≈ 0.151 µM); MIC [26]: 0.12 µg/mL (≈ 0.302 µM); MIC [27]: 0.06 µg/mL (≈ 0.151 µM); MIC [28]: 0.12 µg/mL (≈ 0.302 µM); MIC [29]: 0.03 µg/mL (≈ 0.0755 µM)
2 µg/mL (≈ 5.03 µM) | 5 µg/mL (≈ 12.6 µM) | 16 µg/mL (≈ 40.3 µM) | 8 µg/mL (≈ 20.1 µM) | 0.25 µg/mL (≈ 0.629 µM) | 0.25 µg/mL (≈ 0.629 µM) |  | 0.5 µg/mL (≈ 1.26 µM) | 4 µg/mL (≈ 10.1 µM) |  | O=C(O)c1cn(C2CC2)c2cc(N3CCNC(c4cc[nH]n4)C3)c(F)cc2c1=O (stereo not drawn) [Example 121, 1-Cyclopropyl-6-fluoro-1,4-dihydro-4-oxo-7-[3-(1H-pyrazol-3-yl)-1-piperazinyl]-3-quinolinecarboxylic acid] | 
2 µg/mL (≈ 4.84 µM) | 16 µg/mL (≈ 38.7 µM) | > 16 µg/mL | 128 µg/mL (≈ 310 µM) | 8 µg/mL (≈ 19.3 µM) | 8 µg/mL (≈ 19.3 µM) | 1 µg/mL (≈ 2.42 µM) | 8 µg/mL (≈ 19.3 µM) | > 16 µg/mL |  | CCn1cc(C(=O)O)c(=O)c2cc(F)c(N3CCN(C)C(c4ccnn4C)C3)cc21 (stereo not drawn) [Example 110, 1-Ethyl-6-fluoro-1,4-dihydro-7-[4-methyl-3-(1-methyl-1H-pyrazol-5-yl) -1-piperazinyl]-4-oxo-3-quinolinecarboxylic acid] | 
1 µg/mL (≈ 2.59 µM) | 4 µg/mL (≈ 10.4 µM) | 16 µg/mL (≈ 41.5 µM) | 8 µg/mL (≈ 20.8 µM) | 0.25 µg/mL (≈ 0.649 µM) | 0.5 µg/mL (≈ 1.3 µM) | 0.03 µg/mL (≈ 0.0778 µM) | 0.5 µg/mL (≈ 1.3 µM) | 1 µg/mL (≈ 2.59 µM) | 0.06 µg/mL (≈ 0.156 µM) | CN1CCN(c2cc3c(cc2F)c(=O)c(C(=O)O)cn3C2CC2)CC1C1CC1 (stereo not drawn) [Example 125, 1-Cyclopropyl-7-(3-cyclopropyl-4-methyl-1-piperazinyl) -6-fluoro-1,4-dihydro-4-oxo-3-quinolinecarboxylic acid] | 
8 µg/mL (≈ 20.2 µM) | 8 µg/mL (≈ 20.2 µM) | > 16 µg/mL | 32 µg/mL (≈ 80.7 µM) | 2 µg/mL (≈ 5.05 µM) | 1 µg/mL (≈ 2.52 µM) |  | 2 µg/mL (≈ 5.05 µM) | 8 µg/mL (≈ 20.2 µM) |  | CCn1cc(C(=O)O)c(=O)c2cc(F)c(N3CCNC(c4cccnc4)C3)cc21 (stereo not drawn) [Example 122] | 
0.25 µg/mL (≈ 0.656 µM) | 2 µg/mL (≈ 5.24 µM) | 4 µg/mL (≈ 10.5 µM) | 2 µg/mL (≈ 5.24 µM) | 0.002 µg/mL (≈ 0.00524 µM) | 0.12 µg/mL (≈ 0.315 µM) |  | 0.004 µg/mL (≈ 0.0105 µM) | 0.06 µg/mL (≈ 0.157 µM) |  | CN1CCN(c2c(F)c(F)c3c(=O)c(C(=O)O)cn(C4CC4)c3c2F)CC1 [Example 111, 1Cyclopropyl-5,6,8-trifluoro-1,4-dihydro-7-(4-methyl-1-piperazinyl) -4-oxo-3-quinolinecarboxylic acid] | 
 | 1 µg/mL (≈ 2.52 µM) | 4 µg/mL (≈ 10.1 µM) | 2 µg/mL (≈ 5.03 µM) | 0.06 µg/mL (≈ 0.151 µM) | 0.25 µg/mL (≈ 0.629 µM) | 0.06 µg/mL (≈ 0.151 µM) | 0.12 µg/mL (≈ 0.302 µM) | 0.25 µg/mL (≈ 0.629 µM) | 0.12 µg/mL (≈ 0.302 µM) | O=C(O)c1cn(C2CC2)c2cc(N3CCNC(c4ccoc4)C3)c(F)cc2c1=O (stereo not drawn) [Example 92] | 

Structure (SMILES) | MIC [1] | MIC [2] | MIC [3] | MIC [4, 30] | MIC [6] | MIC [7] | MIC [8, 31] | MIC [9] | MIC [10] | MIC ([8]; 18 hours) | further results
O=C(O)c1cn(C2CC2)c2cc(N3CCNC(CF)C3)c(F)cc2c1=O (stereo not drawn) [Example 131, 1-Cyclopropyl-6-fluoro-7-[3-(fluoromethyl)-1-piperazinyl]-1,4-dihydro-4-oxo-3-quinolinecarboxylic acid] | 1 µg/mL (≈ 2.75 µM) | 2 µg/mL (≈ 5.5 µM) | 1 µg/mL (≈ 2.75 µM) | 1 µg/mL (≈ 2.75 µM) | 0.06 µg/mL (≈ 0.165 µM) | 0.12 µg/mL (≈ 0.33 µM) | 0.015 µg/mL (≈ 0.0413 µM) | 0.06 µg/mL (≈ 0.165 µM) | 0.12 µg/mL (≈ 0.33 µM) |  | MIC [5]: 0.12 µg/mL (≈ 0.33 µM)
